Entries after “also recorded” stand apart in the source; their conditions may differ.

For series [1], the system named is mitochondria of live U2OS cells. The experiment in a line: Cellular retention after dye-free media exchange washes. It counts as cell-based. Conditions: 1 h, 37° C., 0, 1 or 2 dye-free media washes. As for the experimental part:
To compare cellular retention of 15, 20, and MitoView 405, U2OS cells were incubated with 15 (200 nM), 20 (200 nM) or MitoView 405 (100 nM; Biotium) for 1 h at 37° C.

Series [2] is described as follows: Photochemistry under 405 nm illumination, analysis by LC-MS. The settings on record: PBS, 5 and 20 min. Format: physicochemical. On the procedure:
To investigate photochemistry, solutions of 8, 11, and 13-15 (100 μM) were prepared in PBS and placed in a glass vial. An aliquot of this freshly prepared solution was immediately analyzed by LC-MS (−hv). The solution was then irradiated with 405 nm light from an LED array (LOCTITE CL20 flood array) for 5 min (t=5 min) and 20 min (t=20 min) followed by analysis using LC-MS. Photochemical adducts 17/17i and 18/18i were purified and the spectral properties of these isomeric mixtures were analyzed. These compounds were then treated with 1 or 2 equivalents of NaOH(aq) to hydrolyze the iminium bond; the resulting oxidized coumarin products S1/S1i and S2/S2i were observed by LC-MS.

Series [3] in a line: Chemical stability by fluorescence in different buffers and media. The settings on record: 1 μM; citrate pH 5, PBS pH 7.4, Tris pH 9, DMEM, DMEM+10% FBS. Format: physicochemical. As for the experimental part:
Measurement of chemical stability by fluorescence (FIG. 5A-5B). To compare the chemical stability of 15 in different conditions using changes in fluorescence, samples (1 μM) of 15 were prepared in the following solutions: citrate buffer, pH 5; PBS, pH 7.4; Tris buffer, pH 9; DMEM; and DMEM containing 10% v/v FBS (DMEM+FBS). 200 μL of each solution (n=3) was placed in a black, clear-bottom 96-well microplate (Nunc, 165305) and sealed with an adhesive film. The fluorescence of the DAB dye was monitored using 445 nm excitation and 510-550 nm emission (integrated signal) reading from the bottom of the plate using a TECAN Spark microplate reader controlled with SparkControl software.

Series [4] in a line: UV-vis and fluorescence spectroscopy. The settings on record: for absorptivity, quantum yield and brightness in nonpolar conditions relative to PBS: SDS micelles and dioxane:water mixtures.
Experimental: Spectroscopy was performed using 1-cm path length, 3.5-mL quartz cuvettes from Starna Cells. All measurements were taken at ambient temperature (22±2° C.). […] Fluorescence spectra were recorded on a Cary Eclipse fluorometer (Varian). Unless otherwise noted, maximum absorption wavelength (λabs), extinction coefficient (ε), and maximum emission wavelength (λem) were measured in PBS, pH 7.4. Reported values and spectra are averages (n=3).
Series [5] can be described thus: Quantum yield determination (absolute, integrating sphere).
Experimental: Unless otherwise noted, Φf values were measured in PBS, pH 7.4. This instrument uses an integrating sphere to determine photons absorbed and emitted by a sample. Measurements were carried out using dilute samples (A<0.1) and self-absorption corrections^24 were performed using the instrument software. Reported values are averages (n=3).
In series [6] the test system is U2OS cells. Kind of series: In-cell photostability experiments. Format: cell-based. The settings on record: 405 nm laser, 15 photobleaching cycles. On the procedure:
In-cell photostability experiments (FIG. 9C). U2OS cells were incubated with 15 (200 nM), 20 (200 nM) or MitoView 405 (100 nM; Biotium) for 1 h at 37° C. and imaged live without washing using a Leica SP8 Falcon confocal microscope with enabled adaptive focus control (AFC), an HC PL-APO 86×/1.20 water objective, and a 405 nm diode laser at 58.9% laser power. […] These images were processed using FIJI.^25

A short description of series [7]: Chemical stability (iminium hydrolysis) by LC-MS. It counts as physicochemical. Conditions: 25 μM; citrate pH 5, PBS pH 7.4, Tris pH 9; sampled every 30 min over 12 h. As for the experimental part: Measurement of chemical stability and photostability by tandem high-pressure liquid chromatography-mass spectrometry (LC-MS; FIG. 3A-D, FIG. 4A-4D, FIG. 6, FIG. 10). To examine the chemical stability and photostability of the DAB dyes, samples were assessed by tandem high-pressure liquid chromatography-mass spectrometry (LC-MS) using an Agilent 1200 LC-MS system equipped with an autosampler, diode array detector, and mass spectrometry detector (ESI; positive ion mode) using a 4.6×150 mm Gemini NX-C18 column with a 5-95% or 5-50% gradient of CH3CN in H2O containing constant 0.1% (v/v) TFA. Chromatograms were monitored using absorbance at 254 nm or 400 nm. To investigate chemical hydrolysis, solutions of 8, 11, and 13-15 (100 μM) were prepared in PBS, pH 7.4. An aliquot of this freshly prepared solution was immediately analyzed by LC-MS (t=0). The solution was then incubated at ambient temperature protected from light for 48 h and analyzed again by LC-MS (t=48 h). Standard samples of coumarins 6, 10, and 12 (100 μM, PBS) were analyzed in the same manner. To compare the stability of compounds 15 and 20 under different conditions, solutions of each dye (25 μM) in citrate buffer, pH 5, PBS, pH 7.4, or Tris buffer, pH 9 were prepared in an autosampler vial and the sample was analyzed using the LC-MS instrumentation every 30 min. […]

In the case of `Cc1cc(=[N+]2CCCCC2)oc2c3c4c(cc12)CCCN4CCC3.O=C([O-])C(F)(F)F` [Compound 15, 1-(9-methyl-2,3,6,7-tetrahydro-1H,5H,11H-pyrano[2,3-f]pyrido[3,2,1-ij]quinolin-11-ylidene)piperidin-1-ium trifluoroacetate], in series [1] (trifluoroacetate), the “cellular signal upon media exchange (retention)” value was “rapidly decreased upon media exchange; also recorded: signal rapidly decreased”. Also, the photochemical oxidation result in series [2] is listed as “no photochemically driven oxidation was detected on the piperidine ring”. Also, the “rate of hydrolysis in different buffer conditions” value in series [3] is given as “modestly higher rates of hydrolysis was observed at elevated pH or in cell culture media containing serum”. In addition, the “absorptivity, quantum yield and brightness in nonpolar conditions relative to PBS” value in series [4] is “higher absorptivity and fluorescence quantum yield”.
In the case of `CCN(CC)c1ccc2c(C)cc(=O)oc2c1` [Compound 6, 7-diethylamino-4-methylcoumarin, reference compound], in series [5] (PBS, pH 7.4), the “fluorescence quantum yield (Φf)” value is listed as 0.06.
As for `CC[N+](CC)=c1cc(C)c2cc3c4c(c2o1)CCCN4CCC3.O=C([O-])C(F)(F)F` [Compound 13, N-ethyl-N-(9-methyl-2,3,6,7-tetrahydro-1H,5H,11H-pyrano[2,3-f]pyrido[3,2,1-ij]quinolin-11-ylidene)ethanaminium trifluoroacetate], in series [4] (PBS, pH 7.4), the Stokes shift is listed as 68 nm and the “maximum fluorescence emission wavelength (λem)” value was 513 nm.
Take `CCN(CC)c1ccc2c(C)cc(N(CC)CC)[o+]c2c1.O=C([O-])C(F)(F)F` [Compound 8, 2,7-Bis(diethylamino)-4-methylbenzopyrylium trifluoroacetate]: the “fluorescence quantum yield (Φf)” value in series [5] (PBS, pH 7.4) is given as 0.16. In addition, in series [4] (PBS, pH 7.4), the Stokes shift is listed as 65 nm, the “bathochromic shift in λabs relative to parent coumarin” value was 45 nm and the “shift in λem relative to parent coumarin” value amounted to 26 nm.
Take `Cc1cc(=[N+]2CCC(CCCC3CC[N+](=c4cc(C)c5cc6c7c(c5o4)CCCN7CCC6)CC3)CC2)oc2c3c4c(cc12)CCCN4CCC3.O=C([O-])C(F)(F)F.O=C([O-])C(F)(F)F` (stereo not shown) [Compound 20, 4,4′-(propane-1,3-diyl)bis(1-(9-methyl-2,3,6,7-tetrahydro-1H,5H,11H-pyrano[2,3-f]pyrido[3,2,1-ij]quinolin-11-ylidene)piperidin-1-ium) trifluoroacetate]: the “fluorescence quantum yield (Φf)” value in series [5] (PBS containing 0.1% w/v SDS) is on record as 0.83; in series [5] (PBS, pH 7.4) it was 0.45. Further, in series [6], the “resistance to photobleaching in live cells” value is recorded as “best overall photostability”. For the same compound, in series [7], the “rate of hydrolysis relative to 15” value is on record as “slightly higher rate of hydrolysis”. Moreover, the “cellular signal upon media exchange (retention)” value in series [1] was “retained”. Also, the “extinction coefficient at λabs (ε)” value is given as 78,900 M^−1 cm^−1 in series [4] (PBS containing 0.1% w/v SDS) and 45,200 M^−1 cm^−1 in series [4] (aqueous solution (PBS, pH 7.4)). In series [4] (PBS, pH 7.4), the “maximum absorption wavelength (λabs)” value was found to be 447 nm. Also, in series [4] (PBS, pH 7.4), the “maximum fluorescence emission wavelength (λem)” value is given as 524 nm. Besides, in series [4], the “absorptivity, quantum yield and brightness in nonpolar conditions relative to PBS” value was “brighter in dioxane:water mixtures”.
Take `Cc1cc(N2CCC2)[o+]c2cc(N3CCC3)ccc12.O=C([O-])C(F)(F)F` [Compound 11, 2,7-Di(azetidin-1-yl) 4-methylbenzopyrylium trifluoroacetate]: in series [5] (PBS, pH 7.4), the “fluorescence quantum yield (Φf)” value is 0.79. Also, in series [4] (PBS, pH 7.4), the Stokes shift was found to be 99 nm, the “bathochromic shift in λabs relative to parent coumarin” value was found to be 48 nm and the “shift in λem relative to parent coumarin” value was found to be 34 nm.
